Patent US7812015B2, “Prophylaxis and treatment of infectious diseases” (priority 2002, dated 2010)
Where two headings read alike, the source gives them in different places.

Key:
[1] = test system: rhinovirus strains (RV14, RV16); assay: Infection of Hela epithelial cells with various rhinovirus strains, cytotoxic effect by FITC-annexin flow cytometry; assay type: cell-based, human; details: RV14 and RV16, 24 h, drug added in serum-free medium 30 min before infection
Source text: (§1) This was shown for Hela cells as example. […] Means±standard deviation for three experiments are shown. […] This is depicted in FIG. 2. […] Means±standard deviation of three experiments are depicted. […] 2. Infection with HIV

Hela epithelial cells = test system: Hela epithelial cells
Description: (§2) The cells were infected with rhinoviruses (strain 14, MOI 25), and the sphingomyelinase activity in cell lysates was measured. For this purpose, the cells were washed after the infection, taken up in 250 mM sodium acetate (pH 5.0), 1.3 mM EDTA and 0.05% NP40, disrupted by ultrasound treatment with a sonicator probe at low energy, and incubated with [^14C]sphingomyelin (0.5 μCi/sample, 54.5 mCi/mmol; NEN) for 30 min The in vitro enzyme assay was stopped by adding 800 μl of a 2:1 column mixture of CHCl3 and CH3OH (v/v) and 200 μl of H2O, and the liberation of [^14C]phosphorylcholine into the aqueous supernatant was measured by scintigraphy after organic extraction. […] Hela cells were again infected with rhinoviruses (strain 14) for this purpose. Ceramide was measured by a diacylglycerol (DAG) kinase assay (Grassme et al., Cell 91, 605-615, 1997). Ceramide was converted into [^32P]-ceramide by adding DAG kinase and [^32P]γATP. The phosphorylated ceramide was fractionated by thin layer chromatography and determined by scintigraphy. […] Infection of human epithelial cells by rhinoviruses was measured in flow cytometric analyses of the cytopathic effect of the viruses. […] 2.

ceramide = assay: Ceramide liberation in rhinovirus-infected Hela cells (DAG kinase assay); assay type: cell-based, human; details: Hela cells infected with rhinovirus strain 14, preincubation
Source text: as §1

[2] = biological target: T1, acid sphingomyelinase (ASM) (Homo sapiens, UniProt P17405); assay: Acid sphingomyelinase activity in lysates of Hela cells infected with rhinovirus strain 14 ([14C]sphingomyelin assay); assay type: cell-based; details: rhinovirus strain 14, MOI 25, preincubation with inhibitor
T1 construct: endogenous in cells; host or cells: HeLa cells infected with rhinovirus strain 14
Description: as §2

rhinovirus strain 14 = assay: Infection of Hela epithelial cells with rhinovirus strain 14, cytotoxic effect by flow cytometry after FITC-annexin staining; assay type: cell-based, human; details: rhinovirus strain 14, 24 h, drug added in serum-free medium 30 min before infection
Source text: as §1

T1 sequence (P17405 47-631): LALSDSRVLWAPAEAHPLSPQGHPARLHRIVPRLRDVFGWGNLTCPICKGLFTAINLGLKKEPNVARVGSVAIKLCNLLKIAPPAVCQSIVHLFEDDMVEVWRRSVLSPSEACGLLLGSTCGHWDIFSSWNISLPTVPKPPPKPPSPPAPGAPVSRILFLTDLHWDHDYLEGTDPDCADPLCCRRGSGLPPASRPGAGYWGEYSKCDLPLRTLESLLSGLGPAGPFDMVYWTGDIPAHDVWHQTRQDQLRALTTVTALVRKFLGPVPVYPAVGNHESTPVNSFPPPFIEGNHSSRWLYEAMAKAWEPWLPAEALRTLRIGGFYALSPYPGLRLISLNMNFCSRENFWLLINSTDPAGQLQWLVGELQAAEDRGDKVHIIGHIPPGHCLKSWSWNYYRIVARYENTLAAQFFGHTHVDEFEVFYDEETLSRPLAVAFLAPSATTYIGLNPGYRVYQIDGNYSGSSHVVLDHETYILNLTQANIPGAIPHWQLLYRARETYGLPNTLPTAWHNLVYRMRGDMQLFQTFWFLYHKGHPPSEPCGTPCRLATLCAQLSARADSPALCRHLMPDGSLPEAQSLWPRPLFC

| Structure (SMILES) | inhibition of viral infection (cytotoxic effect of the viruses) [1] | cytotoxic effect of the drug itself on the cells (Hela epithelial cells; Hela cells) | liberation of ceramide after preincubation of the cells (ceramide) | activity of acid sphingomyelinase after preincubation of the cells [2] | inhibition of viral infection (cytotoxic effect of the virus) (rhinovirus strain 14) | cytotoxic effect of the drug itself on the cells (Hela epithelial cells) |
| --- | --- | --- | --- | --- | --- | --- |
| CN(C)CCC=C1c2ccccc2CCc2ccccc21 [amitryptiline] | almost completely inhibit the viral infection | no cytotoxic effect | abolishes the liberation of ceramide | blocks the activity of acid sphingomyelinase | almost completely inhibits the viral infection | – |
| CN(C)CCCN1c2ccccc2CCc2ccccc21 [imipramine] | almost completely inhibit the viral infection | – | – | – | almost completely inhibits the viral infection | no cytotoxic effect |
